7 molecules from PubChem BioAssay (NCI) can be followed below.

Test systems include A549 NSCLC; DU-145 prostate; HCC-2998 colon; HOP-62 NSCLC; HOP-92 NSCLC; HS 578T breast; OVCAR-4 ovarian; SF-539 CNS; SK-MEL-5 melanoma; UACC-257 melanoma.
What all share (assay): NCI tumour cell line growth inhibition, 48 h

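Cells were grown in 96-well plates and exposed to each compound for 48 hours at five concentrations; endpoints were interpolated linearly between bracketing concentrations, or set to the highest concentration if not reached. The concentration for 50% growth inhibition is given as GI50. TGI: concentration producing complete growth inhibition.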

On to `CCCCC[C@H]1C/C=C2/C(=O)C=C[C@@H]2C/C=C\CCCC(=O)O1`, for which the GI50 in the assay with A549 NSCLC is 0.115 µM; in the assay on DU-145 prostate, 0.169 µM; in the assay with HCC-2998 colon, 0.096 µM; in the assay with HOP-62 NSCLC, 0.129 µM; with HOP-92 NSCLC, 0.577 µM; in the assay with HS 578T breast, 0.403 µM. Besides, the GI50 was 0.189 µM in the assay with OVCAR-4 ovarian, 0.16 µM with SF-539 CNS, 0.0844 µM in the assay with SK-MEL-5 melanoma and 0.105 µM in the assay on UACC-257 melanoma. Besides, the TGI is 0.313 µM in the assay on A549 NSCLC; 1.94 µM in the assay with DU-145 prostate; 0.179 µM with HCC-2998 colon; 0.341 µM in the assay on HOP-62 NSCLC; 2.18 µM in the assay with HOP-92 NSCLC; 16.8 µM with HS 578T breast. Also, the TGI in the assay with OVCAR-4 ovarian is 5.94 µM; in the assay with SF-539 CNS, 0.67 µM; in the assay with SK-MEL-5 melanoma, 0.168 µM; in the assay with UACC-257 melanoma it was 0.346 µM.
As for `CC(=O)c1nc(-c2ccc(C[C@@H](CNC(=O)CN(C)C)NC(=O)c3ccc(OC(C)C)c(Cl)c3)cc2)cn1C`, the GI50 in the assay on A549 NSCLC is 0.0518 µM; with DU-145 prostate, 0.032 µM; in the assay with HCC-2998 colon, 0.134 µM; with HOP-62 NSCLC, 0.0614 µM; in the assay on HOP-92 NSCLC, 1.52 µM; in the assay with HS 578T breast, 0.0615 µM. The GI50 in the assay on OVCAR-4 ovarian was 0.842 µM; in the assay with SF-539 CNS it was 0.0341 µM; with SK-MEL-5 melanoma, 0.0707 µM; with UACC-257 melanoma, 9.58 µM. Moreover, the TGI in the assay on A549 NSCLC stood at 19.1 µM; in the assay with DU-145 prostate it was 11.4 µM; with HCC-2998 colon it was 21.8 µM; in the assay with HOP-62 NSCLC, 16.9 µM; with HOP-92 NSCLC, 13.8 µM; in the assay with HS 578T breast, 21.3 µM. Moreover, the TGI in the assay on OVCAR-4 ovarian came out at 22.9 µM; in the assay with SF-539 CNS, 3.03 µM; with SK-MEL-5 melanoma it was 5.51 µM; in the assay on UACC-257 melanoma it was 24.3 µM.
On to `CCOC(=O)C(Cc1cc(OC)c(CC(C(=O)OCC)C(=O)OCC)cc1OC)C(=O)OCC`, for which the TGI with A549 NSCLC was greater than 100 µM; in the assay with DU-145 prostate, greater than 100 µM; in the assay with HCC-2998 colon, greater than 100 µM; with HOP-62 NSCLC, greater than 100 µM; in the assay on HOP-92 NSCLC, 83.8 µM; in the assay on HS 578T breast, greater than 100 µM. Besides, the TGI with OVCAR-4 ovarian, in the assay with SF-539 CNS, with SK-MEL-5 melanoma and with UACC-257 melanoma was greater than 100 µM in each case.
`S=C(Nc1ccc(-c2nc3ccccc3s2)cc1)Nc1ccc(-c2nc3ccccc3s2)cc1`: the GI50 was 22.4 µM in the assay with A549 NSCLC; 19.1 µM with DU-145 prostate; 17.4 µM in the assay on HCC-2998 colon; 37.5 µM in the assay with HOP-62 NSCLC; 15.3 µM with HOP-92 NSCLC; 17.8 µM in the assay on HS 578T breast. Besides, the GI50 in the assay with OVCAR-4 ovarian was 24.4 µM; in the assay on SF-539 CNS, 16.6 µM; in the assay on SK-MEL-5 melanoma, 13.5 µM; in the assay with UACC-257 melanoma, 24.5 µM. Besides, the TGI in the assay with A549 NSCLC was 78.5 µM; in the assay with DU-145 prostate it was 62.5 µM; in the assay on HCC-2998 colon, 31.2 µM; in the assay with HOP-62 NSCLC, greater than 100 µM; in the assay on HOP-92 NSCLC, 53.6 µM; in the assay with HS 578T breast it was 47.4 µM. Also, the TGI with OVCAR-4 ovarian worked out at 99.4 µM; with SF-539 CNS it was 42.4 µM; in the assay on SK-MEL-5 melanoma, 26.6 µM; in the assay on UACC-257 melanoma it was 48 µM.
For the molecule `Cc1cc(C)c(-c2c(O)c(Br)c(-c3c(C)cc(C)c(Br)c3C)c(O)c2Br)c(C)c1Br`, the GI50 in the assay with A549 NSCLC was 2.73 µM; in the assay on DU-145 prostate it was 4.21 µM; with HCC-2998 colon, 2.67 µM; in the assay on HOP-62 NSCLC it was 2.81 µM; with HOP-92 NSCLC, 0.66 µM; in the assay with HS 578T breast it was 2.32 µM. Further, the GI50 in the assay with OVCAR-4 ovarian was 2.56 µM; in the assay on SF-539 CNS it was 2.6 µM; in the assay with SK-MEL-5 melanoma it was 1.77 µM; with UACC-257 melanoma, 2.52 µM. For the same molecule, the TGI in the assay with A549 NSCLC is 11.7 µM; in the assay with DU-145 prostate it was 16 µM; in the assay on HCC-2998 colon, 7.31 µM; in the assay on HOP-62 NSCLC, 10.1 µM; in the assay on HOP-92 NSCLC, 5.67 µM; in the assay on HS 578T breast, 11.9 µM. For the same molecule, the TGI in the assay on OVCAR-4 ovarian is 9.92 µM; in the assay on SF-539 CNS it was 8.11 µM; in the assay on SK-MEL-5 melanoma it was 4.24 µM; in the assay with UACC-257 melanoma, 12.2 µM.
In the case of `CCOC(=O)c1sc(NC(=O)COc2ccc(/C=C3\CCc4cc(OC)ccc4C3=O)cc2)nc1C`, the GI50 is 13.1 µM in the assay with A549 NSCLC; 12.8 µM with DU-145 prostate; 1.47 µM in the assay with HCC-2998 colon; 15.2 µM in the assay with HOP-62 NSCLC; 1.18 µM with HOP-92 NSCLC; 13.4 µM in the assay on HS 578T breast. Also, the GI50 in the assay on OVCAR-4 ovarian is 11.8 µM; in the assay with SF-539 CNS, 11.7 µM; in the assay with SK-MEL-5 melanoma, 12.4 µM; with UACC-257 melanoma, 11.5 µM. Also, the TGI in the assay with A549 NSCLC turned out to be 35.8 µM; in the assay on DU-145 prostate, 26.4 µM; in the assay on HCC-2998 colon it was 4.38 µM; in the assay on HOP-62 NSCLC, 30.6 µM; with HOP-92 NSCLC, 4.61 µM; in the assay on HS 578T breast it was 42.4 µM. For the same molecule, the TGI in the assay with OVCAR-4 ovarian was found to be 27.7 µM; in the assay with SF-539 CNS, 23.9 µM; in the assay with SK-MEL-5 melanoma it was 24.8 µM; with UACC-257 melanoma, 25 µM.
As to `C/C(=N\NC(=S)N1CCCC1)c1ccccn1`, the GI50 in the assay with A549 NSCLC was less than 0.01 µM; with DU-145 prostate it was 0.0428 µM; in the assay with HCC-2998 colon it was 0.132 µM; with HOP-62 NSCLC, less than 0.01 µM; in the assay with HOP-92 NSCLC, 0.0508 µM; in the assay on HS 578T breast, 0.198 µM. Also, the GI50 with OVCAR-4 ovarian was less than 0.01 µM; in the assay with SF-539 CNS, less than 0.0265 µM; in the assay with SK-MEL-5 melanoma, 0.0348 µM; in the assay on UACC-257 melanoma, less than 0.01 µM. In addition, the TGI in the assay with A549 NSCLC worked out at 10.5 µM; with DU-145 prostate, 14.8 µM; in the assay with HCC-2998 colon it was 13.9 µM; in the assay with HOP-62 NSCLC it was 13.8 µM; in the assay on HOP-92 NSCLC it was 7.98 µM; in the assay with HS 578T breast, 20.5 µM. The TGI stood at 2.3 µM in the assay with OVCAR-4 ovarian, 3.08 µM in the assay on SF-539 CNS, 0.42 µM in the assay on SK-MEL-5 melanoma and 0.166 µM in the assay on UACC-257 melanoma.
